From patent US11209411B2, “Methods for analyzing stability of an active pharmaceutical ingredient” (Purdue Research Foundation, priority 2018, dated 2021)

How the values were obtained:
[1] = Traditional forced degradation in bulk solution, oxidative (H2O2), nanospray MS; format: physicochemical; details: 45 μg/mL, 0.3% H2O2, 90% methanol-10% H2O
Source text: (§1) Particularly, the degradation of three APIs in Leidenfrost droplets is exemplified, under conditions of constant volume achieved by adding make-up solvent automatically via a syringe pump during the levitation period. The data were compared with the degradation of the corresponding bulk material under similar conditions of solvent and temperature. In both droplet and bulk, degradation products are monitored by mass spectrometry and the ratio of products to reactants was used to infer the extent of reaction (Table 1).
(§2) Traditional forced degradation was performed by preparing a stock stress solution of hydrochloric acid or hydrogen peroxide, and a stock solution of the compound of interest (the API). Then the solutions were mixed and allowed to react at a set temperature for a set period of time (FIG. 1A). The composition of the final reaction mixture was analyzed by nanospray MS and the data for the bulk phase experiments are given in Table 1. Likewise, the Leidenfrost reaction mixture was made by the same method, then instead of letting the mixed solution age at a set temperature, it was dropped into a ceramic well which was placed on hot plate held at a temperature of 540° C. to form a much cooler Leidenfrost droplet (FIG. 1B). […] Here, both bulk and Leidenfrost products are analyzed by using nanospray MS.

[2] = Accelerated forced degradation in Leidenfrost droplets, oxidative (H2O2), nanospray MS; format: physicochemical; details: 0.3% H2O2, 90% methanol-10% H2O
Source text: as §1, §2

[3] = Accelerated forced degradation in Leidenfrost droplets, acid (HCl), nanospray MS; format: physicochemical; details: 0.5M HCl, 90% propanol-10% H2O, without make-up solvent
Method: The data were compared with the degradation of the corresponding bulk material under similar conditions of solvent and temperature. In both droplet and bulk, degradation products are monitored by mass spectrometry and the ratio of products to reactants was used to infer the extent of reaction (Table 1).
as §2

[4] = Traditional forced degradation in bulk solution, acid (HCl), nanospray MS; details: 450 μg/mL
Source text: as §1, §2

| Set Ratio (products to reactants, extent of degradation) ([1]; 40° C., reached after 1.5 h in bulk, 180 s in Leidenfrost droplet) | Bulk Time ([1]; bulk 40° C., time to reach Set Ratio 3%) | Leidenfrost Time ([2]; 45 μg/mL, Leidenfrost droplet 40° C., constant volume, time to reach Set Ratio 3%) | Accel. Factor ([2]; Leidenfrost droplet vs bulk, 40° C.) | Leidenfrost Time ([3]; 450 μg/mL, Leidenfrost droplet 80° C., time to reach Set Ratio 2.5%) | Accel. Factor ([3]; Leidenfrost droplet vs bulk, 80° C.) | Bulk Time ([4]; 0.5M HCl, 90% propanol-10% H2O, bulk 80° C., time to reach Set Ratio 2.5%) | Set Ratio (products to reactants, extent of degradation) ([4]; 3 h) | SMILES |
| --- | --- | --- | --- | --- | --- | --- | --- | --- |
| 3% | 1.5 h^ | 180 s | ~20 | – | – | – | – | CN1CCN(CCCN2c3ccccc3Sc3ccc(C(F)(F)F)cc32)CC1 [Trifluoperazine (TFP), Trifluoperazine] |
| – | – | – | – | 40 s | ~270 | 3 h | 2.5%^ | NS(=O)(=O)c1cc2c(cc1Cl)NCNS2(=O)=O [Hydrochlorothiazide (HCTZ), Hydrochlorothiazide] |
